Source: paper PMC6095594, “Pre-clinical evaluation of quinoxaline-derived chalcones in tuberculosis” (PLoS ONE, 2018)
Converted amounts (≈) assume the structure as drawn. Like-named read-outs stand apart in the source and are kept apart here.

Experiments:
[1] = system: M. tuberculosis drug-resistant clinical isolate CDCT-10; assay type: cell-based, Mycobacterium tuberculosis
[2] = system: M. tuberculosis drug-resistant clinical isolate CDCT-16; assay type: cell-based, Mycobacterium tuberculosis
[3] = system: M. tuberculosis drug-resistant clinical isolate CDCT-27; assay type: cell-based, Mycobacterium tuberculosis
[4] = system: M. tuberculosis pNIP::InhA(S94A); assay type: cell-based, Mycobacterium tuberculosis
[5] = system: M. tuberculosis pNIP::KatG(S315T); assay type: cell-based, Mycobacterium tuberculosis
[6] = system: M. tuberculosis drug-resistant clinical isolate CDCT-10; conditions: cited from earlier work
[7] = system: M. tuberculosis drug-resistant clinical isolate CDCT-16; conditions: cited from earlier work
[8] = system: M. tuberculosis drug-resistant clinical isolate CDCT-27; conditions: cited from earlier work

SMILES	MIC [1] [mg/L]	MIC [2] [mg/L]	MIC [3] [mg/L]	MIC [4] [mg/L]	MIC [5] [mg/L]	MIC [6] [mg/L]	MIC [7] [mg/L]	MIC [8] [mg/L]
COc1ccc(OC)c(C(=O)/C=C/c2ccc3nccnc3c2)c1 [N9]	1.56 (≈ 4.87 µM)	3.13 (≈ 9.77 µM)	3.13 (≈ 9.77 µM)	3.13 (≈ 9.77 µM)	1.56 (≈ 4.87 µM)			
COc1cc(C(=O)/C=C/c2ccc3nccnc3c2)cc(OC)c1OC [N15]	3.13 (≈ 8.93 µM)	6.25 (≈ 17.8 µM)	6.25 (≈ 17.8 µM)	3.13 (≈ 8.93 µM)	3.13 (≈ 8.93 µM)			
NNC(=O)c1ccncc1 [INH, isoniazid, reference compound]	6.25 (≈ 45.6 µM)	>100	25 (≈ 182 µM)	12.5 (≈ 91.1 µM)	>100			
CO[C@H]1/C=C/O[C@@]2(C)Oc3c(C)c(O)c4c(O)c(c(/C=N/N5CCN(C)CC5)c(O)c4c3C2=O)NC(=O)/C(C)=C\C=C\[C@H](C)[C@H](O)[C@@H](C)[C@@H](O)[C@@H](C)[C@H](OC(C)=O)[C@@H]1C [RIF, Rifampicin]						>100	>100	<0.2
COc1cccc(C(=O)/C=C/c2ccc3nccnc3c2)c1 [N23]	2.5 (≈ 8.61 µM)	5 (≈ 17.2 µM)	5 (≈ 17.2 µM)	2.5 (≈ 8.61 µM)	1.25 (≈ 4.31 µM)			
